From ChEMBL document CHEMBL1145691, “Hypoglycemic activity of some triterpenoid glycosides” (1997)

How the values were obtained:
Format in all cases: functional
Conditions in all cases: route intraperitoneal
Mus musculus [1] = experiment: Hypoglycemic activity in normal ddY mouse at 5 mg/kg, ip assessed as blood glucose level per 100 mL blood after 4 hrs
Mus musculus [2] = experiment: Hypoglycemic activity in normal ddY mouse at 5 mg/kg, ip assessed as blood glucose level per 100 mL blood after 7 hrs
Mus musculus [3] = experiment: Hypoglycemic activity in diabetic KK-Ay mouse at 5 mg/kg, ip assessed as blood glucose level per 100 mL blood after 4 hrs
Mus musculus [4] = experiment: Hypoglycemic activity in diabetic KK-Ay mouse at 5 mg/kg, ip assessed as blood glucose level per 100 mL blood after 7 hrs
Mus musculus [5] = experiment: Hypoglycemic activity in normal ddY mouse at 1 mg/kg, ip assessed as blood glucose level per 100 mL blood after 4 hrs
Mus musculus [6] = experiment: Hypoglycemic activity in normal ddY mouse at 1 mg/kg, ip assessed as blood glucose level per 100 mL blood after 7 hrs
Mus musculus [7] = experiment: Hypoglycemic activity in diabetic KK-Ay mouse at 1 mg/kg, ip assessed as blood glucose level per 100 mL blood after 4 hrs
Mus musculus [8] = experiment: Hypoglycemic activity in diabetic KK-Ay mouse at 1 mg/kg, ip assessed as blood glucose level per 100 mL blood after 7 hrs
Mus musculus [9] = experiment: Hypoglycemic activity in normal ddY mouse at 50 mg/kg, ip assessed as blood glucose level per 100 mL blood after 4 hrs
Mus musculus [10] = experiment: Hypoglycemic activity in normal ddY mouse at 50 mg/kg, ip assessed as blood glucose level per 100 mL blood after 7 hrs
Mus musculus [11] = experiment: Hypoglycemic activity in diabetic KK-Ay mouse at 50 mg/kg, ip assessed as blood glucose level per 100 mL blood after 4 hrs
Mus musculus [12] = experiment: Hypoglycemic activity in diabetic KK-Ay mouse at 50 mg/kg, ip assessed as blood glucose level per 100 mL blood after 7 hrs

COc1ccc(/C=C/C(=O)O[C@@H]2[C@H](O)[C@@H](O[C@@H]3O[C@@H](C)[C@H](O[C@@H]4OC[C@@H](O[C@@H]5O[C@H](CO)[C@H](O)[C@H](O)[C@H]5O)[C@H](O)[C@H]4O)[C@@H](O)[C@H]3O)[C@H](OC(=O)[C@]34CCC(C)(C)C[C@@H]3C3=CC[C@@H]5[C@@]6(C)C[C@H](O[C@@H]7O[C@H](CO)[C@@H](O)[C@H](O)[C@H]7O)[C@H](O)[C@@](C)(C(=O)O)[C@@H]6CC[C@@]5(C)[C@]3(CO)CC4)O[C@@H]2C)cc1 [DESMETHOXYSENEGIN II]
Activity (Mus musculus [1]): 199 mg/dL
Activity (Mus musculus [2]): 195 mg/dL
Activity (Mus musculus [3]): 306 mg/dL
Activity (Mus musculus [4]): 325 mg/dL

COc1ccc(/C=C/C(=O)O[C@@H]2[C@H](O[C@@H]3O[C@@H](C)[C@H](O)[C@@H](O)[C@H]3O)[C@@H](O[C@@H]3O[C@@H](C)[C@H](O[C@@H]4OC[C@@H](O[C@@H]5O[C@H](CO)[C@H](O)[C@H](O)[C@H]5O)[C@H](O)[C@H]4O)[C@@H](O)[C@H]3O)[C@H](OC(=O)[C@]34CCC(C)(C)C[C@@H]3C3=CC[C@@H]5[C@@]6(C)C[C@H](O[C@@H]7O[C@H](CO)[C@@H](O)[C@H](O)[C@H]7O)[C@H](O)[C@@](C)(C(=O)O)[C@@H]6CC[C@@]5(C)[C@]3(CO)CC4)O[C@@H]2C)cc1 [SENEGIN III]
Activity (Mus musculus [5]): 167 mg
Activity (Mus musculus [6]): 172 mg
Activity (Mus musculus [1]): 151 mg/dL
Activity (Mus musculus [2]): 160 mg/dL
Activity (Mus musculus [7]): 195 mg
Activity (Mus musculus [8]): 210 mg
Activity (Mus musculus [3]): 204 mg/dL
Activity (Mus musculus [4]): 146 mg/dL

COc1ccc(/C=C/C(=O)O[C@@H]2[C@H](O)[C@@H](O[C@@H]3O[C@@H](C)[C@H](O[C@@H]4OC[C@@H](O[C@@H]5O[C@H](CO)[C@H](O)[C@H](O)[C@H]5O)[C@H](O)[C@H]4O)[C@@H](O)[C@H]3O)[C@H](OC(=O)[C@]34CCC(C)(C)C[C@@H]3C3=CCC5[C@@]6(C)C[C@H](O[C@@H]7O[C@H](CO)[C@@H](O)[C@H](O)[C@H]7O)[C@H](O)[C@@](C)(C(=O)O)[C@@H]6CC[C@@]5(C)[C@]3(CO)CC4)O[C@@H]2C)cc1OC (stereo partly specified) [SENEGIN II]
Activity (Mus musculus [5]): 139 mg
Activity (Mus musculus [6]): 149 mg
Activity (Mus musculus [1]): 137 mg/dL
Activity (Mus musculus [2]): 140 mg/dL
Activity (Mus musculus [7]): 226 mg
Activity (Mus musculus [8]): 305 mg
Activity (Mus musculus [3]): 217 mg/dL
Activity (Mus musculus [4]): 182 mg/dL

COc1ccc(/C=C/C(=O)O[C@@H]2[C@H](O[C@@H]3O[C@@H](C)[C@H](O)[C@@H](O)[C@H]3O)[C@@H](O[C@@H]3O[C@@H](C)[C@H](O[C@@H]4OC[C@@H](O[C@@H]5O[C@H](CO)[C@H](O)[C@H](O)[C@H]5O)[C@H](O)[C@H]4O)[C@@H](O[C@H]4OC[C@](O)(CO)[C@H]4O)[C@H]3O)[C@H](OC(=O)[C@]34CCC(C)(C)C[C@@H]3C3=CC[C@@H]5[C@@]6(C)C[C@H](O[C@@H]7O[C@H](CO)[C@@H](O)[C@H](O)[C@H]7O)[C@H](O)[C@@](C)(C(=O)O)[C@@H]6CC[C@@]5(C)[C@]3(CO)CC4)O[C@@H]2C)cc1 [SENEGIN IV]
Activity (Mus musculus [5]): 177 mg
Activity (Mus musculus [6]): 171 mg
Activity (Mus musculus [1]): 187 mg/dL
Activity (Mus musculus [2]): 169 mg/dL
Activity (Mus musculus [7]): 207 mg
Activity (Mus musculus [8]): 276 mg
Activity (Mus musculus [3]): 276 mg/dL
Activity (Mus musculus [4]): 388 mg/dL

COc1cc(/C=C/C(=O)OC[C@@]2(O[C@H]3O[C@H](COC(C)=O)[C@@H](OC(=O)/C=C/c4ccc(O)c(OC)c4)[C@H](O[C@@H]4O[C@H](COC(C)=O)[C@@H](O[C@@H]5O[C@H](CO)[C@@H](O)[C@H](O)[C@H]5O)[C@H](O)[C@H]4O)[C@H]3O[C@@H]3O[C@H](CO)[C@@H](O)[C@H](O)[C@H]3O)O[C@H](CO)[C@@H](O)[C@@H]2OC(=O)c2ccccc2)ccc1O [SENEGOSE A]
Activity (Mus musculus [1]): 197 mg/dL
Activity (Mus musculus [2]): 199 mg/dL
Activity (Mus musculus [3]): 401 mg/dL
Activity (Mus musculus [4]): 368 mg/dL

CCCCNC(=O)NS(=O)(=O)c1ccc(C)cc1 [TOLBUTAMIDE]
Activity (Mus musculus [9]): 160 mg
Activity (Mus musculus [10]): 170 mg
Activity (Mus musculus [11]): 495 mg
Activity (Mus musculus [12]): 370 mg
